Legend:
Format in all cases: functional
[1] = test system: Haemonchus contortus; experiment: Parasiticidal activity against Haemonchus contortus by larval assay
[2] = test system: Rhipicephalus sanguineus; experiment: Parasiticidal activity against Rhipicephalus sanguineus assessed as mortality after 24 hrs by brown dog tick assay; design: concentration or dose not given beside the values
[3] = test system: Ctenocephalides felis; experiment: Parasiticidal activity against Ctenocephalides felis assessed as mortality after 24 hrs by cat flea assay; design: concentration or dose not given beside the values
[4] = test system: Ctenocephalides felis; experiment: Parasiticidal activity against Ctenocephalides felis by cat flea assay
[5] = test system: Rhipicephalus sanguineus; experiment: Parasiticidal activity against Rhipicephalus sanguineus assessed per tick by brown dog tick assay

CC/C(=N\OCc1ccccc1C(F)(F)F)c1cc(Cl)ccc1NS(=O)(=O)C(F)(F)F
LD99 [1]: 2.7 µM | Activity [2]: 31% | Activity [3]: 96% | LC50 [4]: 36 ng/cm2

C#CCO/N=C(\C)c1cc(Cl)ccc1NS(=O)(=O)C(F)(F)F
Activity [2]: 100% | Activity [3]: 100% | LC50 [4]: 11 ng/cm2 | LD50 [5]: 0.99 µg

CCC/C(=N\OCC1CCCCC1)c1cc(Cl)ccc1NS(=O)(=O)C(F)(F)F
LD99 [1]: 11 µM | Activity [3]: 70%

CC(C)/C(=N\Oc1ccc(F)cc1)c1cc(Cl)ccc1NS(=O)(=O)C(F)(F)F
Activity [2]: 42% | Activity [3]: 100%

C/C(=N\OC1CCCCC1)c1ccc(C(F)(F)F)cc1NS(=O)(=O)C(F)(F)F
Activity [3]: 4%

C=CCO/N=C(\C)c1cc(Cl)ccc1NS(=O)(=O)C(F)(F)F
Activity [2]: 100% | Activity [3]: 100%

C/C(=N\Oc1ccc(Br)cc1)c1cc(Cl)ccc1NS(=O)(=O)C(F)(F)F
LD99 [1]: 0.87 µM | Activity [3]: 91%

O=S(=O)(Nc1ccc(Cl)cc1/C(=N/Oc1ccc(F)cc1)c1ccccc1)C(F)(F)F
Activity [3]: 21%

C#CCO/N=C(\CC)c1cc(Cl)ccc1NS(=O)(=O)C(F)(F)F
LD99 [1]: 20 µM | Activity [2]: 100% | Activity [3]: 100% | LC50 [4]: 27 ng/cm2 | LD50 [5]: 0.86 µg

CCO/N=C(\C)c1ccc(F)cc1NS(=O)(=O)C(F)(F)F
LD99 [1]: >15 µM | Activity [2]: 8% | Activity [3]: 100%

CC/C(=N\OC(C)C)c1cc(Cl)ccc1NS(=O)(=O)C(F)(F)F
Activity [2]: 100% | Activity [3]: 100%

c1ccc([C@H]2CN3CCSC3=N2)cc1 [LEVAMISOLE]
LD99 [1]: 0.71 µM

CCO/N=C(\C)c1ccccc1NS(=O)(=O)C(F)(F)F
LD99 [1]: >16 µM | Activity [2]: 90% | Activity [3]: 92%

CC/C(=N\OCc1cccs1)c1cc(Cl)ccc1NS(=O)(=O)C(F)(F)F
LD99 [1]: 35 µM | Activity [2]: 70% | Activity [3]: 100% | LC50 [4]: 7 ng/cm2 | LD50 [5]: 2.5 µg

CC/C(=N\OC)c1cc(Cl)ccc1NS(=O)(=O)C(F)(F)F
LD99 [1]: 16 µM | Activity [2]: 95% | Activity [3]: 100% | LC50 [4]: 15 ng/cm2 | LD50 [5]: 0.89 µg

CC/C(=N\OC1CCCCC1)c1cc(Cl)ccc1NS(=O)(=O)C(F)(F)F
Activity [2]: 100% | Activity [3]: 100% | LD50 [5]: 5.7 µg

CCC/C(=N\OCc1ccc(Cl)cc1Cl)c1cc(Cl)ccc1NS(=O)(=O)C(F)(F)F
LD99 [1]: 3.6 µM | Activity [3]: 88%

CC/C(=N\OCCOC)c1cc(Cl)ccc1NS(=O)(=O)C(F)(F)F
Activity [2]: 95% | Activity [3]: 100%

C/C(=N\OCC1CCCCC1)c1cc(Cl)ccc1NS(=O)(=O)C(F)(F)F
Activity [2]: 100% | Activity [3]: 96%

CC/C(=N\OC1CCCC1)c1cc(Cl)ccc1NS(=O)(=O)C(F)(F)F
LD99 [1]: 25 µM | Activity [2]: 100% | Activity [3]: 100% | LC50 [4]: 21 ng/cm2 | LD50 [5]: 1.5 µg

COCCO/N=C(\C)c1cc(Cl)ccc1NS(=O)(=O)C(F)(F)F
Activity [2]: 100% | Activity [3]: 100% | LC50 [4]: 12 ng/cm2 | LD50 [5]: 0.71 µg

C/C(=N\OC1CCCCC1)c1cc(Cl)ccc1NS(=O)(=O)C(F)(F)F
Activity [2]: 100% | Activity [3]: 100%

CC/C(=N\Oc1cccc(Cl)c1)c1cc(Cl)ccc1NS(=O)(=O)C(F)(F)F
LD99 [1]: 3.6 µM | Activity [3]: 100%

CCO/N=C(\C)c1cc(Cl)ccc1NS(=O)(=O)C(F)(F)F
LD99 [1]: >15 µM | Activity [2]: 85% | Activity [3]: 100%

C/C(=N\OCC1CC1)c1cc(Cl)ccc1NS(=O)(=O)C(F)(F)F
Activity [2]: 100% | Activity [3]: 100% | LC50 [4]: 5 ng/cm2 | LD50 [5]: 1 µg

C=CCO/N=C(\CC)c1cc(Cl)ccc1NS(=O)(=O)C(F)(F)F
LD99 [1]: 32 µM | Activity [2]: 100% | Activity [3]: 100% | LC50 [4]: 21 ng/cm2 | LD50 [5]: 0.67 µg

O=S(=O)(Nc1ccc(Cl)cc1/C(=N/OC1CCCCC1)c1ccccc1)C(F)(F)F
Activity [2]: 45% | Activity [3]: 12%

CC/C(=N\OCc1ccc(Cl)cc1)c1cc(Cl)ccc1NS(=O)(=O)C(F)(F)F
LD99 [1]: 1.7 µM | Activity [2]: 83% | Activity [3]: 100% | LC50 [4]: 12 ng/cm2 | LD50 [5]: 2.5 µg

C/C(=N\OC(C)(C)C)c1cc(Cl)ccc1NS(=O)(=O)C(F)(F)F
LD99 [1]: 16 µM | Activity [2]: 92% | Activity [3]: 100% | LC50 [4]: 41 ng/cm2 | LD50 [5]: 1.4 µg

CC/C(=N\Oc1ccc(Cl)cc1)c1cc(Cl)ccc1NS(=O)(=O)C(F)(F)F
LD99 [1]: 1 µM | Activity [2]: 95% | Activity [3]: 100% | LC50 [4]: 51 ng/cm2

C/C(=N\OCc1ccc(Cl)cc1)c1ccc(C(F)(F)F)cc1NS(=O)(=O)C(F)(F)F
Activity [2]: 27% | Activity [3]: 100%

C/C(=N\Oc1ccc(F)cc1)c1cc(Cl)ccc1NS(=O)(=O)C(F)(F)F
LD99 [1]: 4.6 µM | Activity [2]: 100% | Activity [3]: 100% | LC50 [4]: 10 ng/cm2 | LD50 [5]: 1.3 µg

N#Cc1nn(-c2c(Cl)cc(C(F)(F)F)cc2Cl)c(N)c1[S+]([O-])C(F)(F)F (stereo not given) [FIPRONIL]
LC50 [4]: 0.1 ng/cm2
